Values of other authors as cited in US20170020130A1, “METHOD OF PREPARATION AND COMPOSITION OF ANT[…]” (Eltron Research & Development, LLC, priority 2008, published 2017).

Conditions: alkaline pH (7.5≦pH≦10.5), near the pKa

Question: With `CC(=O)OO` [peracetic acid] as the molecule, how does the “stability (decomposition with evolution of oxygen)” value read?
Answer: least stable
